In the supplement of paper PMC10307832:

Tests used:
Assay in all cases: relative viability (nuclei count vs DMSO), 5 days (fraction); higher = more cells survive
[1] = system: NCI-H1793
How it was run: (§1)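 Relative viability was taken as the ratio of nuclei in treated wells to nuclei in vehicle wells. Lung cancer cell lines in 1536-well plates received compounds by pin tool one day after seeding, either one drug alone or a fixed anchor-drug dose plus five library-drug doses (not always all listed) in √10 steps. Nuclei were counted on 4× images after 5 days of treatment, and values are medians of duplicate plates.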

[2] = system: SW 900
How it was run: as §1

[3] = system: NCI-H727
How it was run: as §1

[4] = system: NCI-H23
How it was run: as §1

[5] = system: NCI-H2347
How it was run: as §1

[6] = system: LC-2-ad
How it was run: as §1

[7] = system: 201T
How it was run: as §1

[8] = system: SW 1573
How it was run: as §1

[9] = system: NCI-H1563
How it was run: as §1

[10] = system: LCLC-103H
How it was run: as §1

[11] = system: PC-3 [JPC-3]
How it was run: as §1

[12] = system: NCI-H2228
How it was run: as §1

[13] = system: NCI-H596
How it was run: as §1

[14] = system: LU99A
How it was run: as §1

[15] = system: COR-L23
How it was run: as §1

[16] = system: H3255
How it was run: as §1

[17] = system: NCI-H1650
How it was run: as §1

[18] = system: NCI-H460
How it was run: as §1

[19] = system: PC-14
How it was run: as §1

[20] = system: LCLC-97TM1
How it was run: as §1

[21] = system: A-427
How it was run: as §1

[22] = system: LK-2
How it was run: as §1

For `CCN(CC)CCCCNc1ncc2cc(-c3cc(OC)cc(OC)c3)c(NC(=O)NC(C)(C)C)nc2n1` + COc1cc2c(Oc3ccc(NC(=O)C4(C(=O)Nc5ccc(F)cc5)CC4)cc3F)ccnc2cc1OCCCN1CCOCC1 [Foretinib] (partner 0.25 µM), the relative viability ([1]; first compound 0.01 µM) was 0.734, the relative viability ([1]; first compound 0.03162 µM) was 0.759 and the relative viability ([1]; first compound 0.1 µM) was 0.716. For the same compound, the relative viability ([1]; first compound 0.3162 µM) was 0.676, the relative viability ([1]; first compound 1 µM) was 0.403 and the relative viability ([2]; first compound 0.01 µM) was 0.891. For the same compound, the relative viability ([2]; first compound 0.03162 µM) was 0.733, the relative viability ([2]; first compound 0.3162 µM) was 0.745 and the relative viability ([2]; first compound 1 µM) was 0.557. The relative viability ([3]; first compound 0.01 µM) was 0.956, the relative viability ([3]; first compound 0.03162 µM) was 0.834 and the relative viability ([3]; first compound 0.1 µM) was 0.919. For the same compound, the relative viability ([3]; first compound 0.3162 µM) was 1.05, the relative viability ([3]; first compound 1 µM) was 0.844 and the relative viability ([4]; first compound 0.01 µM) was 1.01. The relative viability ([4]; first compound 0.03162 µM) was 0.831, the relative viability ([4]; first compound 0.1 µM) was 1.23 and the relative viability ([4]; first compound 0.3162 µM) was 0.984. For the same compound, the relative viability ([4]; first compound 1 µM) was 0.955, the relative viability ([5]; first compound 0.01 µM) was 0.744 and the relative viability ([5]; first compound 0.03162 µM) was 0.85. The relative viability ([5]; first compound 0.1 µM) was 1.4, the relative viability ([5]; first compound 0.3162 µM) was 1.12 and the relative viability ([5]; first compound 1 µM) was 0.766. It also gave a relative viability ([6]; first compound 0.01 µM) of 1.09, a relative viability ([6]; first compound 0.03162 µM) of 0.998 and a relative viability ([6]; first compound 0.1 µM) of 1.11. The relative viability ([6]; first compound 0.3162 µM) was 0.951, the relative viability ([6]; first compound 1 µM) was 0.966 and the relative viability ([7]; first compound 0.03162 µM) was 1.06. It also gave a relative viability ([7]; first compound 0.1 µM) of 1.2, a relative viability ([7]; first compound 0.3162 µM) of 1.05 and a relative viability ([7]; first compound 1 µM) of 1.03. It also gave a relative viability ([8]; first compound 0.01 µM) of 0.928, a relative viability ([8]; first compound 0.03162 µM) of 0.878 and a relative viability ([8]; first compound 0.1 µM) of 0.924. It also gave a relative viability ([8]; first compound 0.3162 µM) of 0.896, a relative viability ([8]; first compound 1 µM) of 0.814 and a relative viability ([9]; first compound 0.01 µM) of 0.921. For the same compound, the relative viability ([9]; first compound 0.03162 µM) was 0.896, the relative viability ([9]; first compound 0.1 µM) was 1.03 and the relative viability ([9]; first compound 0.3162 µM) was 0.907. The relative viability ([9]; first compound 1 µM) was 0.748, the relative viability ([10]; first compound 0.01 µM) was 0.942 and the relative viability ([10]; first compound 0.03162 µM) was 0.866. For the same compound, the relative viability ([10]; first compound 0.1 µM) was 0.858, the relative viability ([10]; first compound 0.3162 µM) was 0.755 and the relative viability ([10]; first compound 1 µM) was 0.597. For the same compound, the relative viability ([11]; first compound 0.01 µM) was 1.08, the relative viability ([11]; first compound 0.03162 µM) was 1.07 and the relative viability ([11]; first compound 0.1 µM) was 1.13. The relative viability ([11]; first compound 0.3162 µM) was 1.16, the relative viability ([11]; first compound 1 µM) was 1.04 and the relative viability ([12]; first compound 0.01 µM) was 1.03. For the same compound, the relative viability ([12]; first compound 0.03162 µM) was 1.01, the relative viability ([12]; first compound 0.1 µM) was 1.35 and the relative viability ([12]; first compound 0.3162 µM) was 0.998. It also gave a relative viability ([12]; first compound 1 µM) of 0.635, a relative viability ([13]; first compound 0.01 µM) of 0.852 and a relative viability ([13]; first compound 0.03162 µM) of 0.919. The relative viability ([13]; first compound 0.1 µM) was 0.943, the relative viability ([13]; first compound 0.3162 µM) was 0.931 and the relative viability ([13]; first compound 1 µM) was 0.73. For the same compound, the relative viability ([14]; first compound 0.01 µM) was 0.828, the relative viability ([14]; first compound 0.03162 µM) was 0.888 and the relative viability ([14]; first compound 0.1 µM) was 0.91. It also gave a relative viability ([14]; first compound 0.3162 µM) of 0.867, a relative viability ([14]; first compound 1 µM) of 0.782 and a relative viability ([15]; first compound 0.01 µM) of 1.11. For the same compound, the relative viability ([15]; first compound 0.03162 µM) was 0.981, the relative viability ([15]; first compound 0.1 µM) was 1.14 and the relative viability ([15]; first compound 0.3162 µM) was 1.04. It also gave a relative viability ([15]; first compound 1 µM) of 1.05, a relative viability ([16]; first compound 0.01 µM) of 0.898 and a relative viability ([16]; first compound 0.03162 µM) of 0.915. For the same compound, the relative viability ([16]; first compound 0.1 µM) was 1.04, the relative viability ([16]; first compound 0.3162 µM) was 0.943 and the relative viability ([16]; first compound 1 µM) was 0.85. It also gave a relative viability ([17]; first compound 0.01 µM) of 1.26, a relative viability ([17]; first compound 0.03162 µM) of 1.11 and a relative viability ([17]; first compound 0.1 µM) of 1.1. The relative viability ([17]; first compound 0.3162 µM) was 1.2, the relative viability ([17]; first compound 1 µM) was 1.12 and the relative viability ([18]; first compound 0.01 µM) was 0.972. The relative viability ([18]; first compound 0.03162 µM) was 1.13, the relative viability ([18]; first compound 0.1 µM) was 1.03 and the relative viability ([18]; first compound 0.3162 µM) was 1.04. It also gave a relative viability ([18]; first compound 1 µM) of 1.18, a relative viability ([19]; first compound 0.01 µM) of 0.976 and a relative viability ([19]; first compound 0.03162 µM) of 0.976. The relative viability ([19]; first compound 0.1 µM) was 1.08, the relative viability ([19]; first compound 0.3162 µM) was 1.07 and the relative viability ([19]; first compound 1 µM) was 0.885. The relative viability ([20]; first compound 0.01 µM) was 1.1, the relative viability ([20]; first compound 0.03162 µM) was 0.94 and the relative viability ([20]; first compound 0.1 µM) was 1.03. For the same compound, the relative viability ([20]; first compound 0.3162 µM) was 1.06, the relative viability ([20]; first compound 1 µM) was 0.95 and the relative viability ([21]; first compound 0.01 µM) was 1.18. It also gave a relative viability ([21]; first compound 0.03162 µM) of 1.11, a relative viability ([21]; first compound 0.1 µM) of 1.18 and a relative viability ([21]; first compound 0.3162 µM) of 1.1. It also gave a relative viability ([21]; first compound 1 µM) of 0.99, a relative viability ([22]; first compound 0.01 µM) of 1.06 and a relative viability ([22]; first compound 0.03162 µM) of 1.13. For the same compound, the relative viability ([22]; first compound 0.1 µM) was 1.66, the relative viability ([22]; first compound 0.3162 µM) was 0.962 and the relative viability ([22]; first compound 1 µM) was 0.663.
